Source: PubChem BioAssay AID1645865 (Buhrlage Lab, Dana-Farber Cancer Institute and Novartis …, 2021)
Activity calls are given as the source filed them.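 Rule for the calls: active = maximal inhibition of the USP30 enzyme reaching 30% or more across the dose series; inactive = the rest.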

These compounds were tested against Ubiquitin carboxyl-terminal hydrolase 30 (Homo sapiens) (UniProt Q70CQ3) (assay: inhibitors of ubiquitin-specific protease 30 deubiquitylating enzyme, concentration dependence, in vitro biochemical, validation of primary hits (AID 1645865)). Details: purified USP30, Ub-rhodamine cleavage, fluorescence, 2 h.
Ubiquitin carboxyl-terminal hydrolase 30 (Homo sapiens), sequence (Q70CQ3 whole entry, looked up): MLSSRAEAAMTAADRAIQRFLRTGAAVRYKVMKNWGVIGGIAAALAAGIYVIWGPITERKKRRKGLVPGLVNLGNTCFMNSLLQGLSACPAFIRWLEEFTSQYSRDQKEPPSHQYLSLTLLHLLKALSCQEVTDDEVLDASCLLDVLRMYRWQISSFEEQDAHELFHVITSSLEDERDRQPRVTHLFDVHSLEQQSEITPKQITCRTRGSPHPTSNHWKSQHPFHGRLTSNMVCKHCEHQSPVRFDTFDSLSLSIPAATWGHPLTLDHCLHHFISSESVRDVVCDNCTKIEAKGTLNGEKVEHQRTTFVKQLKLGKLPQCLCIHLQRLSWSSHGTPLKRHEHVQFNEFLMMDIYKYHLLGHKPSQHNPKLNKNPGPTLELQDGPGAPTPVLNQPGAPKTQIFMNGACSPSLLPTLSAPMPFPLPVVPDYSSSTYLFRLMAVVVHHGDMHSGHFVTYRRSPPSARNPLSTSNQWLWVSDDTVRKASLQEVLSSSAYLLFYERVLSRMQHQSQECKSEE

Structure (SMILES)	IC50
COc1cnc(-c2ccccn2)nc1Sc1ccccc1Cl	2.89 µM
Cc1ccc2nc(N3CCc4ccccc4C3)c3nncn3c2c1	> 50 µM (inactive)
O=C(Nc1ncc2c(n1)-c1ccccc1CC2)C1CC1	17.5 µM
COc1ncccc1CN1CCn2c(Cn3cccn3)cnc2C1C (centres undefined)	> 50 µM (inactive)
Cc1ccccc1NC(=O)Cn1c(N2CCOCC2)nc2cc(C)n(C)c2c1=O	17.9 µM
CC[C@H](C)[C@H](NC(=O)[C@H]([C@@H](C)CC)N(C)C(C)=O)C(=O)N[C@H](C(=O)N[C@@H](CC(C)C)C(=O)C1(C)CO1)[C@@H](C)O (some centres undefined)	> 50 µM (inactive)
Cc1noc(C)c1CN1CC[C@H]2O[C@H](C(=O)NCc3ccco3)CC[C@H]21	> 50 µM (inactive)
COc1cc2c(oc(=O)c3cc(C)cc(OC)c32)c2c([C@@H]3OC(C)[C@@H](O)[C@@](C)(O)C3O)ccc(O)c12 (some centres undefined)	> 50 µM (inactive)
COc1ccc(-n2ccc(=O)c(-c3nc(-c4ccccc4F)no3)n2)cc1OC	> 50 µM (inactive)
Cc1nc(CN2CCn3c(Cn4cccn4)cnc3C2C)cs1 (centres undefined)	> 50 µM (inactive)
Cc1ccc(C(C)C)cc1OCCOCCN1CCNCC1	> 50 µM (inactive)
COc1ccc(C(=O)Nc2n[nH]c(C)c2-c2cccc(C)c2)c(OC)c1	2.31 µM
CCOc1ccc(-c2nc(C#N)c(N3CCN(C(=O)c4ccccc4C)CC3)o2)cc1	2.62 µM
Cc1cccc(NC(=O)Cn2c(-c3cnccn3)nc(C)c(C)c2=O)c1C	> 50 µM (inactive)
CC(=O)Nc1ccc(O)c(-c2nc3cc(C)ccc3o2)c1	3.99 µM
O=c1c(S(=O)(=O)c2cc(F)cc(F)c2)c[nH]c2cc(Cl)ccc12	21 µM
CC(C)(C)C(=O)NC(c1ccccc1)c1nnc(N2CCOCC2)o1 (centres undefined)	> 50 µM (inactive)
CC(C)N1CC2CN(C(=O)c3ccccc3)CCN2Cc2ccccc21 (centres undefined)	> 50 µM (inactive)
CCOc1cc(C2C3=C(CC(C)(C)CC3=O)Nc3onc(C)c32)ccc1O (centres undefined)	37.3 µM
Cc1nc(N2CCCC2)ncc1-c1cc(=O)[nH]c(N2CCc3ccccc3C2)n1	24.4 µM
CC(C)NC(=O)CN1C(=O)CC(C)Sc2ccc(S(=O)(=O)N3CCCCC3)cc21 (centres undefined)	27.1 µM

Structure (SMILES)	IC50
CC(=O)C1=C(O)[C@]2(O)C(=O)c3c(c(C)c4ccc(C)c(O)c4c3O)C[C@H]2[C@@H](N)C1=O	4.68 µM
Cc1ccc(C)c(S(=O)(=O)N2CCN(c3ccc4nnc(-c5ccco5)n4n3)CC2)c1	> 50 µM (inactive)
O=C(Cn1cncc(-c2nc(-c3ccccc3)cs2)c1=O)NC1CCCC1	34.5 µM
Cc1ccc(OCCn2c(=N)n(C(C)C)c3ccccc32)cc1	35.3 µM
Cc1cc(C)n2nc(CNc3cccc(Cl)c3)nc2n1	> 50 µM (inactive)
O=C(O)C1CCN(Cc2c(-c3ccco3)nc3ccc(Cl)cn23)CC1	> 50 µM (inactive)
O=C(NCc1ccc(F)cc1)C1CCN(c2cnc(N3CCCCC3)nc2)CC1	> 50 µM (inactive)
COc1ccc(-c2cc(-c3ccc(F)cc3)[nH]c(=O)c2C#N)cc1	22.1 µM
O=c1c2cnc(N3CCCCC3)nc2ccn1CCc1ccccc1	2.44 µM
O=C(NC1CCCCC1)c1cc2c(cn1)[nH]c1ccccc12	> 50 µM (inactive)
Cc1noc(-c2ccc(N3CCCC(C(=O)NCc4ccc(F)cc4)C3)nc2)n1 (centres undefined)	14.6 µM
Cc1ccc2c(c1)N(Cc1nc(-c3ccc(F)cc3)no1)C(=O)CO2	> 50 µM (inactive)
COc1ccc2ncc3c(-c4ccc(C)cc4)nn(-c4ccc(F)cc4)c3c2c1	1.82 µM
O=c1[nH]c(C2CCN(S(=O)(=O)c3ccc(S(=O)(=O)NC4CCCCC4)cc3)CC2)nc2c1nnn2Cc1c(F)cccc1Cl	22.8 µM
Nc1ccccc1SCc1noc(-c2cccs2)n1	> 50 µM (inactive)
Cc1ccc2[nH]c3c(=O)n(CC4CCCO4)cnc3c2c1 (centres undefined)	17.9 µM
CC1(O)CC(=O)c2c(cc3cc(O)cc(O)c3c2O)C1 (centres undefined)	0.182 µM
O=C(Nc1cc(F)c2nc(N3CCOCC3)ccc2c1)C1CC1	> 50 µM (inactive)
Cc1ccc(Nc2nc(Nc3cccc(Cl)c3)nc3nccnc23)cc1	> 50 µM (inactive)
Cc1cc(C(=O)N2CCOCC2)c(C)n1-c1ccc(O)cc1	> 50 µM (inactive)
CCC(=O)Nc1ccc(-c2nc(Cn3cc(C)cn3)c(C)o2)cc1	> 50 µM (inactive)

Second part, the compound after the results:

IC50	Structure (SMILES)
> 50 µM (inactive)	O=C(Nc1ccccc1)c1cn(-c2cc(N3CCCC3)ncn2)cn1
> 50 µM (inactive)	O=C(Nc1ccc2c(c1)OCCO2)C1CCN(C(=O)c2cc(-c3cccnc3)n[nH]2)CC1
> 50 µM (inactive)	CN1C(=O)c2cc(NC(=O)c3ccccc3Cl)ccc2Oc2ccccc21
1.82 µM	CC1(C)Cc2c(sc3nc(Cc4ccccc4)nc(SCC(=O)Nc4ccccc4)c23)CO1
> 50 µM (inactive)	Cc1ccc2c(=O)c3c([nH]c2c1C)CCN(CC(=O)NCc1ccc2c(c1)OCO2)C3
> 50 µM (inactive)	Cc1c2c(nc3ccccc13)-c1ccccc1CC2
31.3 µM	COc1cc(OC)cc(-n2c(=O)c3sccc3n(CC(=O)c3ccc(F)cc3)c2=O)c1
41 µM	O=C(CSc1nc2ccccc2n1S(=O)(=O)c1ccc(Br)cc1)Nc1ccc([N+](=O)[O-])cc1Cl
> 50 µM (inactive)	CC1(C(=O)NCc2ccccc2)Cn2c(cc3ccccc32)C(=O)N1Cc1ccccc1 (centres undefined)
2.21 µM	CCCCN1CC(C(=O)Nc2ccc(C(=O)Nc3ccc(Cl)cc3)cc2)CC1=O (centres undefined)
> 50 µM (inactive)	CCS(=O)(=O)c1ccccc1C(=O)Nc1ccc2sc(C)nc2c1
31.4 µM	O=C(CCCC(=O)c1ccccc1)Nc1ccc(F)cc1
23.2 µM	CCn1c(SCC(=O)N2c3ccccc3CC2C)nnc1-c1ccc2c(c1)OCCO2 (centres undefined)
8.96 µM	Cc1ccc2[nH]c(=O)c(CN(CC3COCCO3)S(=O)(=O)c3ccc(F)cc3)cc2c1 (centres undefined)
21.2 µM	CCOc1ccc2c(c1)c(=O)c(C(=O)c1ccccc1)cn2CC(=O)Nc1ccc2c(c1)OCCO2
> 50 µM (inactive)	COc1cccc(-n2cnc3cc(C(=O)NC4CC4)ccc3c2=O)c1
> 50 µM (inactive)	COc1ccc(N2C(=O)[C@@H]3[C@H]4c5ccccc5C=CN4C(C(=O)Nc4ccc5c(c4)OCO5)[C@@H]3C2=O)cc1 (some centres undefined)
28.2 µM	COc1cccc(NC(=O)Nc2ccc(CCc3nc4ccccc4[nH]3)cc2)c1
17.5 µM	Cc1cc(C)c2sc(N(CCCn3ccnc3)C(=O)Cc3ccccc3)nc2c1

IC50	Structure (SMILES)
> 50 µM (inactive)	COc1ccc(-c2cnnn2-c2ccc(NC(=O)c3c(F)cccc3F)cc2)cc1OC
2.99 µM	O=C(NCc1ccc(-c2nc3cnccc3o2)cc1)c1cc2ccccc2o1
1.68 µM	COc1ccc(C(=O)Nc2nc(-c3ccc4c(c3)NC(=O)CO4)c(C)s2)cc1OC
24.3 µM	O=C1CC(C(=O)Nc2ccccc2F)n2nc(-c3ccccc3)cc2N1 (centres undefined)
> 50 µM (inactive)	O=C(c1ccc(N2CCc3ccccc32)nn1)N1CCc2ccccc21
2.06 µM	COc1cc(C(=O)NC(Cc2ccccc2)c2nc3ccccc3[nH]2)cc(OC)c1OC (centres undefined)
26.6 µM	CCOC(=O)c1nc(Nc2ccc(OC)c(Cl)c2)c2ccccc2n1
> 50 µM (inactive)	CC(=O)c1ccc(NC(=O)c2nc3ccccc3nc2N2CCOCC2)cc1
37.4 µM	Cc1cc(C)n(-c2ccc(C(=O)NCc3ccc(F)cc3)cn2)n1
25.5 µM	CC(=O)Nc1ccc(S(=O)(=O)N2CCCC(C(=O)Nc3cccc4ccccc34)C2)cc1 (centres undefined)
> 50 µM (inactive)	CCN(Cc1ccccc1)S(=O)(=O)c1ccc(C(=O)Nc2ccc3c(c2)OCCO3)cc1
> 50 µM (inactive)	COc1ccc(-c2cc3nc([C@@H](C)NC(=O)c4ccc5c(c4)OCO5)nn3cn2)cc1
37.1 µM	COc1ccc(S(=O)(=O)N2CCC3(CC2)OC(=O)Nc2ccccc23)cc1
> 50 µM (inactive)	CCS(=O)(=O)N1CCc2cc(C(=O)Nc3ccc4c(c3)OCCO4)ccc21
> 50 µM (inactive)	Cc1nc(-c2ccc(NC(=O)N3CCN(c4ccccn4)CC3)cc2)no1
16.3 µM	O=C(COC(=O)c1cc(Cl)ccc1O)Nc1ccc2c(c1)OCCO2
17.9 µM	CCOC(=O)c1c(C)nc2n(Cc3ccccc3)c3ccccc3n12
> 50 µM (inactive)	O=C(OCc1ccc(F)cc1)c1ccc2ccccc2n1
21.7 µM	O=C(Cn1c(=O)c2sccc2n(Cc2ccc([N+](=O)[O-])cc2)c1=O)NCCc1ccccc1

IC50	Structure (SMILES)
> 50 µM (inactive)	COC(=O)C1C(c2ccc(OC)cc2)C2(C(=O)c3ccccc3C2=O)C2C=Cc3ccccc3N12 (centres undefined)
39.7 µM	Cc1ccc(NC(=O)c2ccc(N3CCOCC3)nn2)cc1F
> 50 µM (inactive)	O=C(Nc1ccccc1)c1cn2c3c(cccc3c1=O)CC2
> 50 µM (inactive)	CC(C)N1C[C@@H]2C[C@H](NS(=O)(=O)c3cccc(C#N)c3)CN2Cc2ccccc21
> 50 µM (inactive)	CC(=O)N1CCc2cc(S(=O)(=O)NCc3ccc(C)cc3)ccc21
23.6 µM	Cc1ccc(CNC(=O)c2ccc(N3C(=O)[C@@H]4Cc5ccccc5CN4C3=O)cc2)cc1
1.24 µM	Cc1cccc(NC(=O)Cn2cnc(-c3noc(-c4ccccc4)n3)c2)c1C
> 50 µM (inactive)	COc1ccc(NC(=O)CSc2nnc(Cc3cccc4ccccc34)n2C)cc1
42.2 µM	O=C1COc2ccc(NC(=O)c3cnn(Cc4ccccc4)c3)cc2N1
> 50 µM (inactive)	CCN(CC(=O)Nc1cc(C)on1)c1cccc2ccccc12
15.3 µM	Cc1ccc(CNC(=O)c2cccc(N3C(=O)N4CCc5c([nH]c6ccccc56)[C@@]4(C)C3=O)c2)cc1
41.2 µM	COc1cccc(NC(=O)C2C3C=CC4(O3)C2C(=O)N(CCc2ccccc2Cl)C4C(=O)NC2CCCCC2)c1 (centres undefined)
25.4 µM	COc1cc(=O)c(C(=O)Nc2ccc(C#N)cc2)nn1-c1cccc(F)c1
> 50 µM (inactive)	Cc1ccc(NC(=O)c2c3c(nc4ccccc24)CCCCC3)c(C)c1
26.5 µM	CC(=O)Nc1ccc(S(=O)(=O)NCc2ccc(C(=O)NCc3ccc(C)cc3)cc2)cc1
14.8 µM	Cc1ccc(CN2C(=O)c3cc4ccccc4n3CC2(C)C(=O)NCc2ccccc2)o1 (centres undefined)
> 50 µM (inactive)	COc1ccc(CC(=O)Nc2cccc(-c3nc4ncccc4o3)c2)cc1OC
> 50 µM (inactive)	CCC1=C(c2ccc(C)cc2)S(=O)(=O)NC1=NCC(=O)NCc1ccccc1F
21.5 µM	COC(=O)c1sc2ccccc2c1NC(=O)c1ccc(Br)s1
